In patent publication US7511013B2, “Cyclosporin analogues and their pharmaceutical uses” (AMR Technology, Inc., priority 2004, dated 2009):
*1 amine or outer side, *2 acyl side, *3 side chain or, on linkers, in order; H or OH if unused. Where a SMILES comes first, the peptide text is derived from it. [ ]: non-standard residue; d: D form. X1 = C=C/C=C/C[C@@H](C)[C@@H](O)[C@@H](C(=O)[*:2])N(C)[*:1]; X3 = C[C@H](C/C=C/Cl)[C@@H](O)[C@@H](C(=O)[*:2])N(C)[*:1]; X2 = C[C@H](C/C=C/I)[C@@H](O)[C@@H](C(=O)[*:2])N(C)[*:1]; NMeL = CN[C@@H](CC(C)C)C(=O)O; NMeV = CN[C@H](C(=O)O)C(C)C; dNMeS = CN[C@H](CO)C(=O)O; Abu = CC[C@H](N)C(=O)O

What follows are compounds tested on concanavalin A-stimulated splenocytes (assay: Concanavalin A-stimulated splenocyte assay ([3H]thymidine incorporation)). Settings: not given.
Format: cell-based, BALB/c mice
Experimental: Male BALB/c mice, at 5 to 7 weeks of age, were sacrificed by CO2 inhalation. Spleens were removed and dissociated by pushing through a nylon cell strainer. The splenocytes were washed in RPMI 1640/5% fetal calf serum (FCS) and pelleted at 400×g. Red blood cells were then lysed by resuspending the cell pellet in ACK lysis buffer (150 mM NH4Cl, 1 mM KHCO3, 0.1 mM EDTA, 3 mL per spleen) for 10 min at room temperature. After pelleting at 400×g, the cells were washed by resuspending in RPMI 1640/5% FCS and repelleting. The cell pellet was resuspended in RPMI 1640/5% FCS and again passed through a cell strainer to remove cell aggregates. The cells were then counted and adjusted to 2×10^6 cells/ml in RPMI 1640/10% FCS/50 μM 2-mercaptoethanol. Cell viability was assessed by Trypan blue staining. […] The cells were cultured in a 37° C. CO2 incubator for 2 days and then pulsed with 1 μCi of [^3H]thymidine for 6 hours. Cells were harvested onto filtermats with a TomTec 96 well plate harvester and lysed with H2O. The filtermat and scintillation fluid were sealed in a plastic sleeve. [^3H]thymidine incorporation was measured with a Wallac Trilux plate counter. Initial screens were done at a fixed value of 100 ng/ml test compound. IC50s were calculated from 7 point concentration-response curves using GraphPad software.

SMILES	IC50 (ng/mL), immunosuppressive activity of novel cyclosporin analogue compound
CC[C@@H]1NC(=O)[C@H]([C@H](O)[C@H](C)C/C=C/I)N(C)C(=O)[C@H](C(C)C)N(C)C(=O)[C@H](CC(C)C)N(C)C(=O)[C@H](CC(C)C)N(C)C(=O)[C@@H](C)NC(=O)[C@H](C)NC(=O)[C@H](CC(C)C)N(C)C(=O)[C@H](C(C)C)NC(=O)[C@H](CC(C)C)N(C)C(=O)CN(C)C1=O [Example 6, cyclosporin vinyl iodide]	11 ng/mL
CC[C@@H]1NC(=O)[C@H]([C@H](O)[C@H](C)C/C=C/I)N(C)C(=O)[C@H](C(C)C)N(C)C(=O)[C@H](CC(C)C)N(C)C(=O)[C@H](CC(C)C)N(C)C(=O)[C@@H](C)NC(=O)[C@H](C)NC(=O)[C@H](CC(C)C)N(C)C(=O)[C@H](C(C)C)NC(=O)[C@H](CC(C)C)N(C)C(=O)CN(C)C1=O [Example 9, trans-deuterated cyclosporin vinyl iodide]	7 ng/mL
CC[C@@H]1NC(=O)[C@H]([C@H](O)[C@H](C)C/C=C/Br)N(C)C(=O)[C@H](C(C)C)N(C)C(=O)[C@H](CC(C)C)N(C)C(=O)[C@H](CC(C)C)N(C)C(=O)[C@@H](C)NC(=O)[C@H](C)NC(=O)[C@H](CC(C)C)N(C)C(=O)[C@H](C(C)C)NC(=O)[C@H](CC(C)C)N(C)C(=O)CN(C)C1=O [Example 19, trans-cyclosporin vinyl bromide]	9 ng/mL
CC[C@@H]1NC(=O)[C@H]([C@H](O)[C@H](C)CC=CC(F)(F)F)N(C)C(=O)[C@H](C(C)C)N(C)C(=O)[C@H](CC(C)C)N(C)C(=O)[C@H](CC(C)C)N(C)C(=O)[C@@H](C)NC(=O)[C@H](C)NC(=O)[C@H](CC(C)C)N(C)C(=O)[C@H](C(C)C)NC(=O)[C@H](CC(C)C)N(C)C(=O)CN(C)C1=O [Example 31, cyclosporin fluoride]	38 ng/mL
CC[C@@H]1NC(=O)[C@H]([C@H](O)[C@H](C)CC=CCF)N(C)C(=O)[C@H](C(C)C)N(C)C(=O)[C@H](CC(C)C)N(C)C(=O)[C@H](CC(C)C)N(C)C(=O)[C@@H](C)NC(=O)[C@H](C)NC(=O)[C@H](CC(C)C)N(C)C(=O)[C@H](C(C)C)NC(=O)[C@H](CC(C)C)N(C)C(=O)CN(C)C1=O [Example 34, cyclosporin allylic fluoride]	12 ng/mL
CCON=C/C=C/C[C@@H](C)[C@@H](O)[C@H]1C(=O)N[C@@H](CC)C(=O)N(C)CC(=O)N(C)[C@@H](CC(C)C)C(=O)N[C@@H](C(C)C)C(=O)N(C)[C@@H](CC(C)C)C(=O)N[C@@H](C)C(=O)N[C@H](C)C(=O)N(C)[C@@H](CC(C)C)C(=O)N(C)[C@@H](CC(C)C)C(=O)N(C)[C@@H](C(C)C)C(=O)N1C [Example 58, cyclosporin oxime]	42 ng/mL
C=C/C=C/C[C@@H](C)[C@@H](O)[C@H]1C(=O)N[C@@H](CC)C(=O)N(C)[C@H](CO)C(=O)N(C)[C@@H](CC(C)C)C(=O)N[C@@H](C(C)C)C(=O)N(C)[C@@H](CC(C)C)C(=O)N[C@@H](C)C(=O)N[C@H](C)C(=O)N(C)[C@@H](CC(C)C)C(=O)N(C)[C@@H](CC(C)C)C(=O)N(C)[C@@H](C(C)C)C(=O)N1C [Example 67, trans-cyclosporin diene] (cyclo([X1][Abu][dNMeS][NMeL]V[NMeL]A[dA][NMeL][NMeL][NMeV]))	7 ng/mL
C=C/C=C/C[C@@H](C)[C@@H](O)[C@H]1C(=O)N[C@@H](CC)C(=O)N(C)[C@H](CO)C(=O)N(C)[C@@H](CC(C)C)C(=O)N[C@@H](C(C)C)C(=O)N(C)[C@@H](CC(C)C)C(=O)N[C@@H](C)C(=O)N[C@H](C)C(=O)N(C)[C@@H](CC(C)C)C(=O)N(C)[C@@H](CC(C)C)C(=O)N(C)[C@@H](C(C)C)C(=O)N1C [Example 69, trans-cyclosporin diene-d2] (cyclo([X1][Abu][dNMeS][NMeL]V[NMeL]A[dA][NMeL][NMeL][NMeV]))	4 ng/mL
CC[C@@H]1NC(=O)[C@H]([C@H](O)[C@H](C)C/C=C/Cl)N(C)C(=O)[C@H](C(C)C)N(C)C(=O)[C@H](CC(C)C)N(C)C(=O)[C@H](CC(C)C)N(C)C(=O)[C@@H](C)NC(=O)[C@H](C)NC(=O)[C@H](CC(C)C)N(C)C(=O)[C@H](C(C)C)NC(=O)[C@H](CC(C)C)N(C)C(=O)[C@@H](CO)N(C)C1=O [Example 71, cyclosporin vinyl chloride] (cyclo([X3][Abu][dNMeS][NMeL]V[NMeL]A[dA][NMeL][NMeL][NMeV]))	8 ng/mL
CC[C@@H]1NC(=O)[C@H]([C@H](O)[C@H](C)C/C=C/I)N(C)C(=O)[C@H](C(C)C)N(C)C(=O)[C@H](CC(C)C)N(C)C(=O)[C@H](CC(C)C)N(C)C(=O)[C@@H](C)NC(=O)[C@H](C)NC(=O)[C@H](CC(C)C)N(C)C(=O)[C@H](C(C)C)NC(=O)[C@H](CC(C)C)N(C)C(=O)[C@@H](CO)N(C)C1=O [Example 72, cyclosporin vinyl iodide] (cyclo([X2][Abu][dNMeS][NMeL]V[NMeL]A[dA][NMeL][NMeL][NMeV]))	5 ng/mL

Same assay, conditions: FIG. 1, concanavalin A stimulated splenocyte assay

SMILES	potency in immunosuppression compared to cyclosporin A
CC[C@@H]1NC(=O)[C@H]([C@H](O)[C@H](C)C/C=C/I)N(C)C(=O)[C@H](C(C)C)N(C)C(=O)[C@H](CC(C)C)N(C)C(=O)[C@H](CC(C)C)N(C)C(=O)[C@@H](C)NC(=O)[C@H](C)NC(=O)[C@H](CC(C)C)N(C)C(=O)[C@H](C(C)C)NC(=O)[C@H](CC(C)C)N(C)C(=O)CN(C)C1=O [Example 9, trans-deuterated cyclosporin vinyl iodide]	enhanced potency
CC[C@@H]1NC(=O)[C@H]([C@H](O)[C@H](C)C/C=C/Cl)N(C)C(=O)[C@H](C(C)C)N(C)C(=O)[C@H](CC(C)C)N(C)C(=O)[C@H](CC(C)C)N(C)C(=O)[C@@H](C)NC(=O)[C@H](C)NC(=O)[C@H](CC(C)C)N(C)C(=O)[C@H](C(C)C)NC(=O)[C@H](CC(C)C)N(C)C(=O)CN(C)C1=O [Example 11, trans-deuterated cyclosporin vinyl chloride]	enhanced potency
